Reference: PubChem BioAssay (NCI)
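Method: 48-hour compound exposure of cells in 96-well plates, five concentrations, linear interpolation of endpoints. Here, GI50 denotes the concentration required for 50% inhibition of growth. Definition used: TGI = concentration required for complete inhibition of growth.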

What was measured:
Experiment in all cases: DTP human tumour cell line panel, 48 h
[1] = system: UO-31 renal
[2] = system: IGROV1 ovarian
[3] = system: SW-620 colon
[4] = system: SNB-19 CNS
[5] = system: MDA-MB-231 breast
[6] = system: TK-10 renal
[7] = system: MOLT-4 leukemia
[8] = system: BT-549 breast
[9] = system: MDA-MB-435
[10] = system: SF-539 CNS
[11] = system: SK-OV-3 ovarian
[12] = system: HL-60(TB) leukemia
[13] = system: HCT-116 colon
[14] = system: M14 melanoma
[15] = system: SF-268 CNS
[16] = system: SK-MEL-2 melanoma
[17] = system: MCF7 breast
[18] = system: SF-295 CNS
[19] = system: NCI-H522 lung
[20] = system: EKVX NSCLC
[21] = system: HOP-62 NSCLC
[22] = system: HT29 colon
[23] = system: K-562 leukemia
[24] = system: OVCAR-3 ovarian
[25] = system: RXF 393 renal
[26] = system: COLO 205 colon
[27] = system: ACHN renal
[28] = system: OVCAR-8 ovarian
[29] = system: CCRF-CEM leukemia
[30] = system: DU-145 prostate
[31] = system: UACC-62 melanoma
[32] = system: MALME-3M melanoma
[33] = system: RPMI-8226 leukemia
[34] = system: SR leukemia
[35] = system: U251 CNS
[36] = system: NCI/ADR-RES ovarian
[37] = system: NCI-H23 lung
[38] = system: HS 578T breast
[39] = system: NCI-H460 lung
[40] = system: KM12 colon
[41] = system: CAKI-1 renal
[42] = system: SK-MEL-28 melanoma
[43] = system: 786-0 renal
[44] = system: NCI-H226 lung
[45] = system: UACC-257 melanoma
[46] = system: SK-MEL-5 melanoma
[47] = system: OVCAR-4 ovarian
[48] = system: HCC-2998 colon
[49] = system: SNB-75 CNS
[50] = system: SN12C renal
[51] = system: PC-3 prostate
[52] = system: A498 renal
[53] = system: A549 NSCLC
[54] = system: LOX IMVI melanoma
[55] = system: OVCAR-5 ovarian
[56] = system: HCT-15 colon

`O=C1c2ccccc2C(=O)c2c1c(=O)c(=O)c1ccccc1c(=O)n2Cc1ccccc1` gave a GI50 [1] greater than 100 µM, a TGI [1] greater than 100 µM and a GI50 [2] of 79.2 µM. It also gave a TGI [2] greater than 100 µM, a GI50 [3] greater than 100 µM and a TGI [3] greater than 100 µM. The GI50 [4] was greater than 100 µM, the TGI [4] was greater than 100 µM and the GI50 [5] was greater than 100 µM. The TGI [5] was greater than 100 µM, the GI50 [6] was greater than 100 µM and the TGI [6] was greater than 100 µM. It also gave a GI50 [7] of 38.2 µM, a TGI [7] greater than 100 µM and a GI50 [8] greater than 100 µM. For the same molecule, the TGI [8] was greater than 100 µM, the GI50 [9] was greater than 100 µM and the TGI [9] was greater than 100 µM. The GI50 [10] was greater than 100 µM, the TGI [10] was greater than 100 µM and the GI50 [11] was greater than 100 µM. For the same molecule, the TGI [11] was greater than 100 µM, the GI50 [12] was 41.8 µM and the TGI [12] was greater than 100 µM. It also gave a GI50 [13] greater than 100 µM, a TGI [13] greater than 100 µM and a GI50 [14] of 36.6 µM. The TGI [14] was greater than 100 µM, the GI50 [15] was greater than 100 µM and the TGI [15] was greater than 100 µM. It also gave a GI50 [16] greater than 100 µM, a TGI [16] greater than 100 µM and a GI50 [17] of 79.1 µM. The TGI [17] was greater than 100 µM, the GI50 [18] was 53.1 µM and the TGI [18] was greater than 100 µM. The GI50 [19] was greater than 100 µM, the TGI [19] was greater than 100 µM and the GI50 [20] was greater than 100 µM. For the same molecule, the TGI [20] was greater than 100 µM, the GI50 [21] was greater than 100 µM and the TGI [21] was greater than 100 µM. It also gave a GI50 [22] greater than 100 µM, a TGI [22] greater than 100 µM and a GI50 [23] of 53.7 µM. For the same molecule, the TGI [23] was greater than 100 µM, the GI50 [24] was 88.8 µM and the TGI [24] was greater than 100 µM. It also gave a GI50 [25] greater than 100 µM, a TGI [25] greater than 100 µM and a GI50 [26] greater than 100 µM. For the same molecule, the TGI [26] was greater than 100 µM, the GI50 [27] was greater than 100 µM and the TGI [27] was greater than 100 µM. It also gave a GI50 [28] greater than 100 µM, a TGI [28] greater than 100 µM and a GI50 [29] of 7.67 µM. The TGI [29] was greater than 100 µM, the GI50 [30] was 47.9 µM and the TGI [30] was greater than 100 µM. For the same molecule, the GI50 [31] was 66.3 µM, the TGI [31] was greater than 100 µM and the GI50 [32] was 28.6 µM. For the same molecule, the TGI [32] was 80.1 µM, the GI50 [33] was 28.5 µM and the TGI [33] was 85.2 µM. For the same molecule, the GI50 [34] was 29 µM, the TGI [34] was greater than 100 µM and the GI50 [35] was greater than 100 µM. The TGI [35] was greater than 100 µM, the GI50 [36] was greater than 100 µM and the TGI [36] was greater than 100 µM. For the same molecule, the GI50 [37] was 8.51 µM, the TGI [37] was greater than 100 µM and the GI50 [38] was greater than 100 µM. It also gave a TGI [38] greater than 100 µM, a GI50 [39] of 50.7 µM and a TGI [39] greater than 100 µM. It also gave a GI50 [40] of 81.9 µM, a TGI [40] greater than 100 µM and a GI50 [41] greater than 100 µM. The TGI [41] was greater than 100 µM, the GI50 [42] was greater than 100 µM and the TGI [42] was greater than 100 µM. For the same molecule, the GI50 [43] was greater than 100 µM, the TGI [43] was greater than 100 µM and the GI50 [44] was greater than 100 µM. For the same molecule, the TGI [44] was greater than 100 µM, the GI50 [45] was greater than 100 µM and the TGI [45] was greater than 100 µM. For the same molecule, the GI50 [46] was 15.8 µM, the TGI [46] was 47.2 µM and the GI50 [47] was greater than 100 µM. The TGI [47] was greater than 100 µM, the GI50 [48] was 84.2 µM and the TGI [48] was greater than 100 µM. For the same molecule, the GI50 [49] was greater than 100 µM, the TGI [49] was greater than 100 µM and the GI50 [50] was greater than 100 µM. It also gave a TGI [50] greater than 100 µM, a GI50 [51] greater than 100 µM and a TGI [51] greater than 100 µM. It also gave a GI50 [52] greater than 100 µM, a TGI [52] greater than 100 µM and a GI50 [53] of 47.2 µM. The TGI [53] was greater than 100 µM, the GI50 [54] was 92.9 µM and the TGI [54] was greater than 100 µM. The GI50 [55] was greater than 100 µM, the TGI [55] was greater than 100 µM and the GI50 [56] was greater than 100 µM. It also gave a TGI [56] greater than 100 µM.
